Results as given in patent US20100203159A1, “METAL COMPONENT […] IN PLANT” (COSMO OIL CO., LTD., priority 2007, published 2010).

How the values were obtained:
barley [1] = experiment: Metal absorption-enhancing effect in barley hydroponics (water culture medium A), ICP metal analysis; format: in vivo, Barley (race: Fiber snow); conditions: for calcium content-enhancing effect in barley: FIG. 1; for zinc content-enhancing effect in barley: FIG. 5; for copper content-enhancing effect in barley: FIG. 4; for manganese content-enhancing effect in barley: FIG. 2; for iron content-enhancing effect in barley: FIG. 3
Procedure: Barley (race: Fiber snow) was seeded on river sand, sprouted, and grown for 9 days. After the growth, the sand was washed out with caring so as not to hurt roots and the roots were cut so as to adjust the length to 2 cm. The roots were immersed in a water culture medium A and hydroponics was performed.
As water culture media, one in which no 5-aminolevulinic acid was dissolved and those in which the compound was dissolved so that each one has a concentration of 0.1, 0.3, or 1 ppm were prepared. The water culture medium was replaced 13 days after the start of the hydroponics, and hydroponics was continued for another 6 days. After the hydroponics, the plant was dried at 50° C. for two nights and then was subjected to ICP metal analysis.
Similar operations were performed as in Example 6 except that the concentration of the added 5-aminolevulinic acid was adjusted to 0, 0.3, or 1 ppm and the manganese concentration in barley was analyzed.
Similar operations were performed as in Example 6 except that the composition of the water culture medium was changed to twofold concentration of the water culture medium A and the concentration of the added 5-aminolevulinic acid was adjusted to 0, 1, or 3 ppm, and then the iron concentration in barley was analyzed.
Similar operations were performed as in Example 6 except that the water culture medium A and a water culture medium having a composition which was twice the composition of the water culture medium A were used and the concentration of the added 5-aminolevulinic acid was adjusted to 0, 0.1, or 0.3 ppm, and then the copper concentration in barley was analyzed. The results are shown in FIG. 4 (left one in the figure is for the water culture medium A and right one is for twofold concentration of the water culture medium A).
Similar operations were performed as in Example 6 except that the concentration of the added 5-aminolevulinic acid was adjusted to 0, 0.1, or 0.3 ppm, and the zinc concentration in barley was analyzed.
Similar operations were performed as in Example 6 except that the concentration of the added 5-aminolevulinic acid was adjusted to 0, 0.1, 0.3, 1, or 3 ppm, and the manganese concentration in barley was analyzed.
Similar operations were performed as in Example 6 except that the concentration of the added 5-aminolevulinic acid was adjusted to 0 or 30 ppm, and the calcium concentration in barley was analyzed.
Similar operations were performed as in Example 6 except that the concentration of the added 5-aminolevulinic acid was adjusted to 0 or 30 ppm, and the manganese concentration in barley was analyzed.
Similar operations were performed as in Example 6 except that the concentration of the added 5-aminolevulinic acid was adjusted to 0 or 30 ppm and the iron concentration in barley was analyzed.
Similar operations were performed as in Example 6 except that the concentration of the added 5-aminolevulinic acid was adjusted to 0 or 30 ppm, and the copper concentration in barley was analyzed.
Similar operations were performed as in Example 6 except that the concentration of the added 5-aminolevulinic acid was adjusted to 0 or 30 ppm, and the zinc concentration in barley was analyzed.
Similar operations were performed as in Example 6 except that the concentration of the added 5-aminolevulinic acid was adjusted to 0 or 30 ppm and the magnesium concentration in barley was analyzed.

radish = experiment: Metal absorption-enhancing effect in radish by foliage treatment, metal analysis; format: in vivo; conditions: foliage treatment 1 or 10 ppm, 100 L per 10 are, together with DTPA iron and magnesium sulfate, harvest 25th day
Source text: Radish was sowed in a pot of 1/57000×10 are in an amount of 6 seeds per pot and grown. An andosol (Kuroboku-soil) was used as soil and watering was suitably performed. On 11th day after the seeding (a two true leaves-developed stage), a solution containing 5-aminolevulinic acid hydrochloride prepared to a concentration of 0, 1, or 10 ppm in a developing agent-diluted (2000 times) liquid was applied to foliage treatment. Moreover, on this occasion, DTPA iron and magnesium sulfate were transformed into solutions having a concentration of 1.8 and 4.5 ppm in terms of Fe and MgO, respectively, and were applied to foliage treatment together with 5-aminolevulinic acid hydrochloride. The amount used for the treatment was 100 L per 10 are. The number of pots was 5 pots per test plot. On 15th day and 20th day after the seeding, thinning was performed and the number of plants per pot was adjusted to 4 individuals. On 25th day after the seeding, the plants were harvested and completely dried at 50° C. for two nights. Thereafter, they are pulverized and mixed in a mixer and then IPC metal analysis was performed.
Similar operations were performed as in Example and the zinc concentration in radish was analyzed.

spinach = experiment: Metal absorption-enhancing effect in spinach by daily spraying, metal content in dry weight by ICP; format: in vivo
Procedure: Two containers were provided and soil was placed in each of them, in which seeds of spinach were uniformly planted. From the day when the seeds were planted, water was applied once a day by means of a sprinkling can. To one of the container, tap water in which 5-aminolevulinic acid hydrochloride was dissolved in a concentration of 1 ppm was sprayed once a day in an amount of about 50 mL by means of a sprayer. Thinning was performed 3 weeks after the seed planting, and harvest was performed on the two containers after 38 days. At the harvest, the upper portions from the ground were cut out and the plant bodies were subjected to natural drying. After drying, the plant bodies was ground one by one in a mortar, the calcium content in dry weight was measured by ICP, and the concentration was calculated.
Similar operations were performed as in Example 1 and the manganese concentration in spinach was calculated.
Similar operations were performed as in Example 1 and the iron concentration in spinach was calculated.
Similar operations were performed as in Example 1 and the copper concentration in spinach was calculated.
Similar operations were performed as in Example 1 and the zinc concentration in spinach was calculated.

barley [2] = experiment: Metal absorption-enhancing effect in barley hydroponics (water culture medium A), ICP metal analysis; format: in vivo, Barley (race: Fiber snow); conditions: 0.1, 0.3, 1, or 3 ppm in water culture medium A; FIG. 6
potato = experiment: Metal absorption-enhancing effect in potato tubers by foliage treatment, metal analysis; format: in vivo; conditions: foliage treatment 1 ppm, from 30th day, then 8 times every other week, tubers harvested 105th day
Procedure: A seed tuber of potato was subjected to light-exposure and sprout-growth to stimulate germination. The germinated potato was planted in a pot of 1/20000×10 are in an amount of 1 tuber per pot. On 30th day after the planting (height of terrestrial portion: about 30 cm), 5-Aminolevulinic Acid hydrochloride was dissolved in a developing agent-diluted (2000 times) liquid in a concentration of 0 or 1 ppm and was applied to foliage treatment. Thereafter, the foliage treatment was performed 8 times every other week. The number of pots was 3 pots per test plot and new sprouts were removed while a strong thick sprout was left so that the number of sprout per pot was 1. On 105th day after the planting, potato as tubers was harvested and the tubers were selected from each test plot so that the total weight was 120±10 g. Then, they were pared and completely dried at 50° C. for two nights. Thereafter, they are pulverized and mixed in a mixer and then […] metal analysis was performed.
Similar operations were performed as in Example 14 and the magnesium concentration in potato was analyzed.

Cl.NCC(=O)CCC(=O)O [5-aminolevulinic acid hydrochloride]
calcium content-enhancing effect in barley (barley [1]; 0.1, 0.3, or 1 ppm in water culture medium A): calcium content-enhancing effect was observed | zinc content-enhancing effect in barley (barley [1]; 0.1 or 0.3 ppm in water culture medium A): zinc content-enhancing effect was observed | copper content-enhancing effect in barley (barley [1]; 0.1 or 0.3 ppm, water culture medium A and twofold concentration of medium A): copper content-enhancing effect was observed | manganese content-enhancing effect in barley (barley [1]; 0.3 or 1 ppm in water culture medium A): manganese content-enhancing effect was observed | iron content-enhancing effect in barley (barley [1]; 1 or 3 ppm, twofold concentration of water culture medium A): iron content-enhancing effect was observed | calcium content-enhancing effect in barley (barley [1]; 30 ppm in water culture medium, Comparative Example 1): calcium content-enhancing effect was not observed | manganese content-enhancing effect in barley (barley [1]; 30 ppm in water culture medium, Comparative Example 2): manganese content-enhancing effect was not observed | iron content-enhancing effect in barley (barley [1]; 30 ppm in water culture medium, Comparative Example 3): iron content-enhancing effect was not observed | copper content-enhancing effect in barley (barley [1]; 30 ppm in water culture medium, Comparative Example 4): copper content-enhancing effect was not observed | zinc content-enhancing effect in barley (barley [1]; 30 ppm in water culture medium, Comparative Example 5): zinc content-enhancing effect was not observed | magnesium content-enhancing effect in barley (barley [1]; 30 ppm in water culture medium, Comparative Example 6, FIG. 6): magnesium content-enhancing effect was not observed | manganese content-enhancing effect in radish (radish; FIG. 7): manganese content-enhancing effect was observed | zinc content-enhancing effect in radish (radish; FIG. 8): zinc content-enhancing effect was observed | Average value of calcium concentration in spinach (spinach; 1 ppm in tap water sprayed once a day, about 50 mL, harvest after 38 days, dry weight, n = 18, no-ALA control 0.61): 0.68% | Average value of iron concentration in spinach (spinach; 1 ppm sprayed once a day, harvest after 38 days, dry weight, n = 18, no-ALA control 0.015): 0.049% | Average value of copper concentration in spinach (spinach; 1 ppm sprayed once a day, harvest after 38 days, dry weight, n = 18, no-ALA control 0.023): 0.029% | Average value of manganese concentration in spinach (spinach; 1 ppm sprayed once a day, harvest after 38 days, dry weight, n = 18, no-ALA control 0.027): 0.031% | Average value of zinc concentration in spinach (spinach; 1 ppm sprayed once a day, harvest after 38 days, dry weight, n = 18, no-ALA control 0.033): 0.048% | calcium content-enhancing effect in spinach (spinach; spraying, 1 ppm once a day): calcium content-enhancing effect was observed | copper content-enhancing effect in spinach (spinach; spraying, 1 ppm once a day): copper content-enhancing effect was observed | iron content-enhancing effect in spinach (spinach; spraying, 1 ppm once a day): iron content-enhancing effect was observed | manganese content-enhancing effect in spinach (spinach; spraying, 1 ppm once a day): manganese content-enhancing effect was observed | zinc content-enhancing effect in spinach (spinach; spraying, 1 ppm once a day): zinc content-enhancing effect was observed | magnesium content-enhancing effect in barley (barley [2]): magnesium content-enhancing effect was observed | iron content-enhancing effect in potato (potato; FIG. 9): iron content-enhancing effect was observed | magnesium content-enhancing effect in potato (potato; FIG. 10): magnesium content-enhancing effect was observed
